ChEMBL document CHEMBL4507282, “Data for DCP probe BI-1950” (2021)

How the values were obtained:
[1] = tested on: Tyrosine-protein kinase ABL1 (Homo sapiens), P00519 [F317I]; conditions: Compound concentration 1000.0 nM
[2] = target: Activin receptor type-1 (Homo sapiens) (UniProt Q04771); conditions: Compound concentration 1000.0 nM
[3] = tested on: ALK tyrosine kinase receptor (Homo sapiens), Q9UM73 [C1156Y]; conditions: Compound concentration 1000.0 nM
[4] = target: Tyrosine-protein kinase BTK (Homo sapiens) (UniProt Q06187); conditions: Compound concentration 1000.0 nM
[5] = target: Peripheral plasma membrane protein CASK (Homo sapiens) (UniProt O14936); conditions: Compound concentration 1000.0 nM
[6] = target: Cyclin-dependent kinase 4 (Homo sapiens) (UniProt P11802); conditions: Compound concentration 1000.0 nM
[7] = target: Cyclin-dependent kinase 7 (Homo sapiens) (UniProt P50613); conditions: Compound concentration 1000.0 nM
[8] = target: Cyclin-dependent kinase 8 (Homo sapiens) (UniProt P49336); conditions: Compound concentration 1000.0 nM
[9] = target: Cyclin-dependent kinase-like 2 (Homo sapiens) (UniProt Q92772); conditions: Compound concentration 1000.0 nM
[10] = target: Serine/threonine-protein kinase Chk1 (Homo sapiens) (UniProt O14757); conditions: Compound concentration 1000.0 nM
[11] = target: Death-associated protein kinase 1 (Homo sapiens) (UniProt P53355); conditions: Compound concentration 1000.0 nM
[12] = target: Serine/threonine-protein kinase 17A (Homo sapiens) (UniProt Q9UEE5); conditions: Compound concentration 1000.0 nM
[13] = target: Dual specificity tyrosine-phosphorylation-regulated kinase 2 (Homo sapiens) (UniProt Q92630); conditions: Compound concentration 1000.0 nM
[14] = tested on: Epidermal growth factor receptor (Homo sapiens), P00533 [G719C]; conditions: Compound concentration 1000.0 nM
[15] = tested on: Epidermal growth factor receptor (Homo sapiens), P00533 [L861Q]; conditions: Compound concentration 1000.0 nM
[16] = target: Ephrin type-B receptor 2 (Homo sapiens) (UniProt P29323); conditions: Compound concentration 1000.0 nM
[17] = target: Mitogen-activated protein kinase 6 (Homo sapiens) (UniProt Q16659); conditions: Compound concentration 1000.0 nM
[18] = target: Tyrosine-protein kinase Fer (Homo sapiens) (UniProt P16591); conditions: Compound concentration 1000.0 nM
[19] = target: Tyrosine-protein kinase Fes/Fps (Homo sapiens) (UniProt P07332); conditions: Compound concentration 1000.0 nM
[20] = tested on: Receptor-type tyrosine-protein kinase FLT3 (Homo sapiens), P36888 [D835Y]; conditions: Compound concentration 1000.0 nM
[21] = target: Rhodopsin kinase GRK1 (Homo sapiens) (UniProt Q15835); conditions: Compound concentration 1000.0 nM
[22] = target: Glycogen synthase kinase-3 beta (Homo sapiens) (UniProt P49841); conditions: Compound concentration 1000.0 nM
[23] = target: Homeodomain-interacting protein kinase 2 (Homo sapiens) (UniProt Q9H2X6); conditions: Compound concentration 1000.0 nM
[24] = target: Mitogen-activated protein kinase 9 (Homo sapiens) (UniProt P45984); conditions: Compound concentration 1000.0 nM
[25] = target: Mitogen-activated protein kinase kinase kinase 15 (Homo sapiens) (UniProt Q6ZN16); conditions: Compound concentration 1000.0 nM
[26] = target: MAP kinase-activated protein kinase 2 (Homo sapiens) (UniProt P49137); conditions: Compound concentration 1000.0 nM
[27] = target: Dual specificity mitogen-activated protein kinase kinase 7 (Homo sapiens) (UniProt O14733); conditions: Compound concentration 1000.0 nM
[28] = target: Macrophage-stimulating protein receptor (Homo sapiens) (UniProt Q04912); conditions: Compound concentration 1000.0 nM
[29] = target: Serine/threonine-protein kinase 38 (Homo sapiens) (UniProt Q15208); conditions: Compound concentration 1000.0 nM
[30] = target: Serine/threonine-protein kinase Nek2 (Homo sapiens) (UniProt P51955); conditions: Compound concentration 1000.0 nM
[31] = target: Serine/threonine-protein kinase OSR1 (Homo sapiens) (UniProt O95747); conditions: Compound concentration 1000.0 nM
[32] = tested on: Phosphatidylinositol 4,5-bisphosphate 3-kinase catalytic subunit alpha isoform (Homo sapiens), P42336 [C420R]; conditions: Compound concentration 1000.0 nM
[33] = target: Phosphatidylinositol 4,5-bisphosphate 3-kinase catalytic subunit beta isoform (Homo sapiens) (UniProt P42338); conditions: Compound concentration 1000.0 nM
[34] = target: Serine/threonine-protein kinase pim-2 (Homo sapiens) (UniProt Q9P1W9); conditions: Compound concentration 1000.0 nM
[35] = target: Protein kinase C eta type (Homo sapiens) (UniProt P24723); conditions: Compound concentration 1000.0 nM
[36] = target: Ribosomal protein S6 kinase alpha-4 (Homo sapiens) (UniProt O75676); conditions: Compound concentration 1000.0 nM
[37] = target: Ribosomal protein S6 kinase alpha-4 (Homo sapiens) (UniProt O75676); conditions: Compound concentration 1000.0 nM; remark: listed apart in the source
[38] = target: Ribosomal protein S6 kinase alpha-5 (Homo sapiens) (UniProt O75582); conditions: Compound concentration 1000.0 nM
[39] = target: SRSF protein kinase 1 (Homo sapiens) (UniProt Q96SB4); conditions: Compound concentration 1000.0 nM
[40] = target: Serine/threonine-protein kinase 16 (Homo sapiens) (UniProt O75716); conditions: Compound concentration 1000.0 nM
[41] = target: 5-hydroxytryptamine receptor 1B (Homo sapiens) (UniProt P28222); conditions: Compound concentration 10.0 uM
[42] = target: Histamine H1 receptor (Homo sapiens) (UniProt P35367); conditions: Compound concentration 10.0 uM
[43] = target: Histamine H2 receptor (Homo sapiens) (UniProt P25021); conditions: Compound concentration 10.0 uM
[44] = target: Histamine H3 receptor (Homo sapiens) (UniProt Q9Y5N1); conditions: Compound concentration 10.0 uM
[45] = target: Beta-1 adrenergic receptor (Homo sapiens) (UniProt P08588); conditions: Compound concentration 10.0 uM
[46] = target: Beta-2 adrenergic receptor (Homo sapiens) (UniProt P07550); conditions: Compound concentration 10.0 uM

Chain of Ribosomal protein S6 kinase alpha-4 (Homo sapiens) (O75676 whole entry, looked up): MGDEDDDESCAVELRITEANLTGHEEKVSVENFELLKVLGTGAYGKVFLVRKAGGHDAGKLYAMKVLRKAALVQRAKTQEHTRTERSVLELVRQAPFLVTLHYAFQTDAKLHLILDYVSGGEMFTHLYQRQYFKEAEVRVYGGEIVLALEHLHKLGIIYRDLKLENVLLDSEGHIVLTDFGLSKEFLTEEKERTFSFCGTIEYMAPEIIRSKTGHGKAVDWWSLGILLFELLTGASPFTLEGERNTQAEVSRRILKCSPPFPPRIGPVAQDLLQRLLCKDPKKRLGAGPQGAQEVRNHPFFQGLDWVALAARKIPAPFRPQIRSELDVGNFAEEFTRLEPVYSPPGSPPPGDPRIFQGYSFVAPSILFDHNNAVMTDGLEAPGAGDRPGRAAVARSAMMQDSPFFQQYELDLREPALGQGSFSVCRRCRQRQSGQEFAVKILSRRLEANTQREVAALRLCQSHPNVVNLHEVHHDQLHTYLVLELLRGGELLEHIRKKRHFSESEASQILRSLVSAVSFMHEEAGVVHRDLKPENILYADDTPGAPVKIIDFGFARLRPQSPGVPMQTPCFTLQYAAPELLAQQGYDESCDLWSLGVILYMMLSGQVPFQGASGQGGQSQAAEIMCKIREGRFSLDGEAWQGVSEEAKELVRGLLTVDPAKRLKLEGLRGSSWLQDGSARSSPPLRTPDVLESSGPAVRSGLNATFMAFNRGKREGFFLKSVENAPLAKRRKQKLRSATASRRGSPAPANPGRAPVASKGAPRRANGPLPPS
Chain of Serine/threonine-protein kinase 17A (Homo sapiens) (Q9UEE5 whole entry): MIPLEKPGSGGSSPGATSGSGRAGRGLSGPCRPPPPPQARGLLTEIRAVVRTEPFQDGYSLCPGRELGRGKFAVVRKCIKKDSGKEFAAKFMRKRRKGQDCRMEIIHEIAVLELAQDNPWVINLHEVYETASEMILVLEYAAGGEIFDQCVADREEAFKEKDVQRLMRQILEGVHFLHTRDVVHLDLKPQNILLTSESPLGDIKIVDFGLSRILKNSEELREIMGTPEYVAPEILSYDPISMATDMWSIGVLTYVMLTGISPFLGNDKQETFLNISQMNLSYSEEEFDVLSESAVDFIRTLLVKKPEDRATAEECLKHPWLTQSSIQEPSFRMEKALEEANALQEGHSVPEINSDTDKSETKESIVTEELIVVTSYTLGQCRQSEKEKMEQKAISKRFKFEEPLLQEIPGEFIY
Chain of Cyclin-dependent kinase 4 (Homo sapiens) (P11802 whole entry): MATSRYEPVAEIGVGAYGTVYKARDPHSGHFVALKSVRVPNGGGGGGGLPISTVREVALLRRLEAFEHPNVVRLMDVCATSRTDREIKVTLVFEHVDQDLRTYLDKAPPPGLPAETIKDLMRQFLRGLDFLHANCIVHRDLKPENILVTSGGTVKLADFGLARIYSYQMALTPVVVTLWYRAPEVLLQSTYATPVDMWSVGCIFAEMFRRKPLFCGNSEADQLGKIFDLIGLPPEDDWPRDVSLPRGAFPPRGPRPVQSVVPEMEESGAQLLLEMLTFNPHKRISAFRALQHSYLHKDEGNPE
Chain of Homeodomain-interacting protein kinase 2 (Homo sapiens) (Q9H2X6 whole entry, looked up): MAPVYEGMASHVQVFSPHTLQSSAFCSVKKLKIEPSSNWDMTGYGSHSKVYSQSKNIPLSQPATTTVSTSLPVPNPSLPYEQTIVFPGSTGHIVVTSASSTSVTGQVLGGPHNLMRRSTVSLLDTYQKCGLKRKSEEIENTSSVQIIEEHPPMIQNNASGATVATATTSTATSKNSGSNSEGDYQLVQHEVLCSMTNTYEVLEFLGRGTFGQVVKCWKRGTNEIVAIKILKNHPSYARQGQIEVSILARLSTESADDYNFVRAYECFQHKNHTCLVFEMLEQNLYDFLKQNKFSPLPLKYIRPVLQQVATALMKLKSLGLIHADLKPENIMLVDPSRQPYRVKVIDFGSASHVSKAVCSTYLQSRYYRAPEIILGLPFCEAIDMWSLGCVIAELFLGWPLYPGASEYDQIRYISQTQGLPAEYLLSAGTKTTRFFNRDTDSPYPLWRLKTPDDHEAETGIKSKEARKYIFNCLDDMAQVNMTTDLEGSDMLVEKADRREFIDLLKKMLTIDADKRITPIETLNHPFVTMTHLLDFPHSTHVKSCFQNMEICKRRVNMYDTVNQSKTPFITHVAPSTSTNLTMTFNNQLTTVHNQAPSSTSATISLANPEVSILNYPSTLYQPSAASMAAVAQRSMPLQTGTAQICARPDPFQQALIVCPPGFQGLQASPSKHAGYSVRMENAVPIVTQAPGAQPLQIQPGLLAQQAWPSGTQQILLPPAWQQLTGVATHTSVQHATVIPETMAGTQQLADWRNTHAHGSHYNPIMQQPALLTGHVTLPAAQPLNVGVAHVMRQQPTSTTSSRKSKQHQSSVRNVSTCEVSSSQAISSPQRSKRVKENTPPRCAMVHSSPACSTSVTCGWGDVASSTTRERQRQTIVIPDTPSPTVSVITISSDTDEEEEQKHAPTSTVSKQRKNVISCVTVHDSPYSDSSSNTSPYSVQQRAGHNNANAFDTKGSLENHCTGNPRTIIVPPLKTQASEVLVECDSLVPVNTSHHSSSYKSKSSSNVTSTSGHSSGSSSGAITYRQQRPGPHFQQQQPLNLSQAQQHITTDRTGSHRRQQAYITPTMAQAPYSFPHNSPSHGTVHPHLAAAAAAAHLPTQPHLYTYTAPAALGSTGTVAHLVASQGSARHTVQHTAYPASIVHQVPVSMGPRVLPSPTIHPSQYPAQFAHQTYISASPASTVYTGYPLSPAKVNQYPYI
Chain of Protein kinase C eta type (Homo sapiens) (P24723 whole entry): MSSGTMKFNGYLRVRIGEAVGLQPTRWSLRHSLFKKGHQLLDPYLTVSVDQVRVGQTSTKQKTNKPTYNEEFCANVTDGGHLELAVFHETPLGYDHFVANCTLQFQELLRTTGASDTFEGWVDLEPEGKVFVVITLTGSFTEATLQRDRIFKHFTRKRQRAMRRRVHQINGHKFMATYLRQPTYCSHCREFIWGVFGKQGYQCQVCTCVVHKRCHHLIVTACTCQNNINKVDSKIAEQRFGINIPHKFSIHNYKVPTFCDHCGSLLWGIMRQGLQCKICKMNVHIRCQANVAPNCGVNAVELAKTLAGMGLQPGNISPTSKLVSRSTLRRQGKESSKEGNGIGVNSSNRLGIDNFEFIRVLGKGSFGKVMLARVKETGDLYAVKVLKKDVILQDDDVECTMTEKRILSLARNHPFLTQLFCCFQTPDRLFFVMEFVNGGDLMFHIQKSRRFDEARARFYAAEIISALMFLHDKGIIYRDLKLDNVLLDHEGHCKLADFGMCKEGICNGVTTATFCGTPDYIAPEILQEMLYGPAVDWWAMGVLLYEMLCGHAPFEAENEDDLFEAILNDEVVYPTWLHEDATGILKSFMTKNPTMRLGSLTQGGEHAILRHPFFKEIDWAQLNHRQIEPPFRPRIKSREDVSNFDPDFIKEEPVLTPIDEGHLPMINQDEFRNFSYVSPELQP
Chain of Histamine H2 receptor (Homo sapiens) (P25021 whole entry): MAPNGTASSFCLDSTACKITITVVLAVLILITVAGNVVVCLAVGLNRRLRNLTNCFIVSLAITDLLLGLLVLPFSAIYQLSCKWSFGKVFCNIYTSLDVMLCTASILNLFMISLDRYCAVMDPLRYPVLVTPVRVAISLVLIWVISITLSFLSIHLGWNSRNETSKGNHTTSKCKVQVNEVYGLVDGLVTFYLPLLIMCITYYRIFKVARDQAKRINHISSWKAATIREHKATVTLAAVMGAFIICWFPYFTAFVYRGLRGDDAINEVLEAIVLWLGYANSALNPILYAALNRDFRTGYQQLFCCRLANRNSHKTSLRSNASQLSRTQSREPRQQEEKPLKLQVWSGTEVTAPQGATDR
Chain of Serine/threonine-protein kinase 38 (Homo sapiens) (Q15208 2-465 limits assumed): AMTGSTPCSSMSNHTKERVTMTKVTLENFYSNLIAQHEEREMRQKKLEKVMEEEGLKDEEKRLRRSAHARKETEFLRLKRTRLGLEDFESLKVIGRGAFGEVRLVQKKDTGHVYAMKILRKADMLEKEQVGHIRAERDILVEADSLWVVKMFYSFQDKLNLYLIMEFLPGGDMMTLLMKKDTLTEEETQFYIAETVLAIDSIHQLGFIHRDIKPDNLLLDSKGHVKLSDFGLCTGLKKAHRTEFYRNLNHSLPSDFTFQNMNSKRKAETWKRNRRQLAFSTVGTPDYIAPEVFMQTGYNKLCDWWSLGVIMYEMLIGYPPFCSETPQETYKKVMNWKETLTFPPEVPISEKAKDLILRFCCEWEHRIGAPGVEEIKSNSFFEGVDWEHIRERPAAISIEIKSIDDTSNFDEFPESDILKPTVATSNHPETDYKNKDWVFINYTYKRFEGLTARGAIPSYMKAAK
Chain of Tyrosine-protein kinase BTK (Homo sapiens) (Q06187 whole entry): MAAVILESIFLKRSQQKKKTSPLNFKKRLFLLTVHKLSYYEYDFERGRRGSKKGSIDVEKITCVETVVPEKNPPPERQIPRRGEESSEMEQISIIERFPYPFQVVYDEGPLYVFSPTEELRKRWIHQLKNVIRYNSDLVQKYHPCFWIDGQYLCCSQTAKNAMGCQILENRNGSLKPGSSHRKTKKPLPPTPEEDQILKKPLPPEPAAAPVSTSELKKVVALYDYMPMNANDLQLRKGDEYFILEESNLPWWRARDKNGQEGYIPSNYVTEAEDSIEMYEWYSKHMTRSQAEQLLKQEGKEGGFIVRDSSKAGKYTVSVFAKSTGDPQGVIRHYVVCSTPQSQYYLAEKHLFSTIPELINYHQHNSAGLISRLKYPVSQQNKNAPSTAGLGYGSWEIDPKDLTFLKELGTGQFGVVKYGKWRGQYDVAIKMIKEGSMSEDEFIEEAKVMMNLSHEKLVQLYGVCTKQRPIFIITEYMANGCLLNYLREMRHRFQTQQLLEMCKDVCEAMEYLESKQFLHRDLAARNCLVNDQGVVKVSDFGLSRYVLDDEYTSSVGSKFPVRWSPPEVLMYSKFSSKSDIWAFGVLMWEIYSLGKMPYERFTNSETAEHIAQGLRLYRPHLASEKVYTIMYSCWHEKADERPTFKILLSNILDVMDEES

C[C@H](NC(=O)c1cnc2n1[C@](C)(Cc1ccc(C#N)cc1)C(=O)N2c1cc(Cl)c(F)c(Cl)c1)C(=O)NC1(c2ccccn2)CC1 [BI 1950]
inactive: residual activity [1] 78% | residual activity [2] 97% | residual activity [3] 100% | residual activity [4] 100% | residual activity [5] 100% | residual activity [6] 100% | residual activity [7] 94% | residual activity [8] 100% | residual activity [9] 100% | residual activity [10] 100% | residual activity [11] 100% | residual activity [12] 100% | residual activity [13] 98% | residual activity [14] 100% | residual activity [15] 100% | residual activity [16] 100% | residual activity [17] 100% | residual activity [18] 100% | residual activity [19] 100% | residual activity [20] 100% | residual activity [21] 100% | residual activity [22] 100% | residual activity [23] 100% | residual activity [24] 92% | residual activity [25] 76% | residual activity [26] 100% | residual activity [27] 100% | residual activity [28] 100% | residual activity [29] 96% | residual activity [30] 95% | residual activity [31] 94% | residual activity [32] 93% | residual activity [33] 99% | residual activity [34] 100% | residual activity [35] 90% | residual activity [36] 63% | residual activity [37] 92% | residual activity [38] 96% | residual activity [39] 81% | residual activity [40] 100% | inhibition [41] 16.5% | inhibition [42] 3.2% | inhibition [43] 11.8% | inhibition [44] 1.43% | inhibition [45] 24.1% | inhibition [46] -9.72%

C[C@@]1(Cc2ccc(C#N)cc2)C(=O)N(c2cc(Cl)cc(Cl)c2)c2ncc(C(=O)NC3(c4nc(C5CCC5)no4)CC3)n21 [BI 9446]
inactive: residual activity [1] 96% | residual activity [2] 89% | residual activity [3] 100% | residual activity [4] 100% | residual activity [5] 100% | residual activity [6] 93% | residual activity [7] 100% | residual activity [8] 100% | residual activity [9] 100% | residual activity [10] 90% | residual activity [11] 100% | residual activity [12] 91% | residual activity [13] 93% | residual activity [14] 100% | residual activity [15] 100% | residual activity [16] 94% | residual activity [17] 100% | residual activity [18] 100% | residual activity [19] 100% | residual activity [20] 100% | residual activity [21] 100% | residual activity [22] 100% | residual activity [23] 100% | residual activity [24] 100% | residual activity [25] 81% | residual activity [26] 100% | residual activity [27] 100% | residual activity [28] 100% | residual activity [29] 100% | residual activity [30] 83% | residual activity [31] 84% | residual activity [32] 89% | residual activity [33] 97% | residual activity [34] 98% | residual activity [35] 100% | residual activity [36] 95% | residual activity [37] 100% | residual activity [38] 100% | residual activity [39] 94% | residual activity [40] 100% | inhibition [41] 17.5% | inhibition [42] 10.3% | inhibition [43] 11% | inhibition [44] 20% | inhibition [45] 29.7% | inhibition [46] -7.08%
